Assay results from US20240122179A1, “AUXINIC HERBICIDES AND METHODS OF USE THEREOF” (CORTEVA AGRISCIENCE LLC, priority 2021, published 2024).
Like-named read-outs stand apart in the source and are kept apart here.

Legend:
Kochia scoparia (KCHSC) = test: Postemergence herbicide evaluation, percent reduction in plant size vs untreated control, 21 days after treatment; type: in vivo; conditions: Bassia scoparia, post-emergence, 504 h, KCHSC, postemergence, read-out: Control/Injury; for pest or weed control at 140 g/ha: rate 140 g ae/ha; for pest or weed control at 280 g/ha: rate 280 g ae/ha
How it was run: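 Greenhouse-grown plants (25-28 °C, 16 h light) at the 2 to 8 leaf stage were track-sprayed postemergence at 140 or 280 g ae/ha in acetone/DMSO-based spray solution with crop oil and surfactant, at 187 L/ha, in 3-4 randomized replicates.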

Amaranthus rudis (AMATA) = test: as above; type: in vivo, Amaranthus rudis (tall water hemp); conditions: Amaranthus tuberculatus, post-emergence, 504 h, AMATA, postemergence, read-out: Control/Injury; for pest or weed control at 140 g/ha: rate 140 g ae/ha; for pest or weed control at 280 g/ha: rate 280 g ae/ha
How it was run: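 Greenhouse-grown tall waterhemp (25-28° C, 16 h light) at the 2-8 leaf stage, treated by track sprayer at 187 L/ha with compound at 140 or 280 g ae/ha in acetone/DMSO-based spray solution with crop oil and surfactant. 3-4 replicates per treatment, randomized complete block; plant size reduction versus untreated control measured 21 days after treatment.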

[1] = test system: Ambrosia artemisiifolia (AMBEL); test: as above; type: in vivo, Ambrosia artemisiifolia (common ragweed); conditions: post-emergence, 504 h, AMBEL, postemergence, read-out: Control/Injury; for pest or weed control at 140 g/ha: rate 140 g ae/ha; for pest or weed control at 280 g/ha: rate 280 g ae/ha
How it was run: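 Greenhouse-grown plants (25–28 °C, 16 h light) were sprayed postemergence at the 2–8 leaf stage with 140 or 280 g ae/ha in acetone/DMSO-based spray solution with crop oil and surfactant, at 187 L/ha by track sprayer. There were 3–4 replicates. Plant size was measured 21 days after treatment versus untreated plants.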

[2] = test system: Amaranthus palmeri (AMAPA); test: as above; type: in vivo, Amaranthus palmeri (Palmer amaranth); conditions: post-emergence, 504 h, postemergence, read-out: Control/Injury; for pest or weed control at 140 g/ha: rate 140 g ae/ha; for pest or weed control at 280 g/ha: rate 280 g ae/ha
How it was run: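 Greenhouse-grown Palmer amaranth (25 to 28° C, 16 h light) sprayed postemergence at the 2 to 8 leaf stage with 140 or 280 g ae/ha in acetone/DMSO-based solution containing crop oil concentrate, 187 L/ha by track sprayer. Three to four replicates; plant size measured 21 days after treatment as percent reduction versus untreated control.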

[3] = test system: Conyza canadensis (L.) (ERICA); test: as above; type: in vivo, Conyza canadensis (L.) (Horseweed); conditions: Erigeron canadensis, post-emergence, 504 h, ERICA, postemergence, read-out: Control/Injury; for pest or weed control at 140 g/ha: rate 140 g ae/ha; for pest or weed control at 280 g/ha: rate 280 g ae/ha
How it was run: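 Horseshoe-weed (horseweed) seedlings at 2 to 8 leaf stage in greenhouse (25-28° C, 16 h light), sprayed postemergence at 140 or 280 g ae/ha in acetone/DMSO-based spray solution, 187 L/ha track-sprayer. Randomized complete block, 3-4 replicates; plant size measured 21 days after treatment as percent reduction vs untreated controls.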

Glycine max = test: whole plant or invertebrate; conditions: for plant injury at 140 g/ha / plant injury at 280 g/ha: Glycine max, post-emergence, 504 h, read-out: Control/Injury
Procedure: Plants were grown in a soil media composed of 90% by volume Promix BX (Premier Tech Horticulture, Quakertown, PA) and 10% Profile Greens Grade (Profile Products LLC, Buffalo Grove, IL). Promix BX contains approximately 83% Sphagnum Peat Moss, 13% Perlite, 5% vermiculite, and proprietary amounts of limestone, starter fertilizer, and wetting agent. Profile Greens Grade is a sand-sized granule formed from calcining illite and montmorillonite clay. Several seeds of each species were planted in 10 cm square pots and top watered twice daily. Plant material was propagated in a warm greenhouse with temperature ranging from 25 to 28° C. and 50 to 60% relative humidity at the Corteva Global Headquarters (Indianapolis, Indiana, USA). Natural light was supplemented with 1000-watt metal halide overhead lamps with an average illumination of 500 μE m^−2 s^−1 photosynthetic active radiation for 16 consecutive hours each day. Plants were top-watered prior to herbicide application and sub-watered after herbicide application.
Appropriate amounts of test materials were weighed out into glass vials in their technical form to deliver either 140 or 280 g acid equivalent (ae)/ha. The samples were dissolved in 3 ml of Solvent 1. Solvent 1 is 97% acetone and 3% dimethyl sulfoxide and serves as a general-purpose solvent (GPS) for dissolving technical materials. […] The samples were then diluted to their final concentration using 17 ml of solvent 2 for a total of 20 ml of spray solution. Solvent 2 contains 41.58% GPS, 45.53% water, 11.88% isopropyl alcohol, 0.99% crop oil concentrate and 0.02% Trition X-155 surfactant. All percentages are listed on a volume basis. Dicamba diglycolamine was applied as a formulated herbicide, Clarity™ and diluted with solvent 2 to compare all materials in the same spray solution.
Herbicide applications were made to 3 to 4 replicates of each plant species at the 2 to 8 leaf stage, depending on the species. Treatments were applied with a research track-sprayer (Generation III Research Sprayer manufactured by DeVries Manufacturing in Hollandale, MN, USA) calibrated to deliver a spray volume of 187 L/ha. The track-sprayer was fitted with an 8003E nozzle from Spray Systems Company (North Avenue and Schmale Road, P.O. Box 7900, Wheaton, IL 60187), and used a spray pressure of 276 kPa pressure and a speed of 3.1 km/h. The nozzle height was 46 cm above the plant canopy. The experimental design used for the trials was a randomized complete block with 3 or 4 replications per treatment. After application, plants were placed on carts according to the randomization and returned to the greenhouse. Plants were sub-watered after treatment with Indianapolis city water or fertilized three times a week with a commercial fertilizer solution (Jack's Professional 15-5-15 4 Ca 2 Mg fertilizer (manufactured by JR PETERS INC., 6656 Grant Way, Allentown, PA 18106; www.jrpeters.com). Percent visual control assessments were made on a scale of 0 to 100% (where 0 was no control and 100 was complete plant death) at 7, 14, and 21 days after treatment.
In conformity with the methods outlined in Example 49, the effect of representative experimental compounds on the growth of Glycine max was determined at 2 different levels (respectively, 140 and 280 g acid equivalent (ae)/ha) of the experimental actives tested. Plants were treated with one of the compounds, a control plant was not treated. Twenty-one days after treatment, the plants were measured. The data is present as a percent reduction in plant size relative to the untreated control.

[4] = percent reduction vs untreated control, 21 days after treatment
[5] = R-AMAPA, percent reduction vs untreated control, 21 days after treatment
[6] = percent reduction vs untreated, 21 days after treatment

Compound	pest or weed control at 140 g/ha (Kochia scoparia (KCHSC); [4])	pest or weed control at 280 g/ha (Kochia scoparia (KCHSC); [4])	pest or weed control at 140 g/ha (Amaranthus rudis (AMATA))	pest or weed control at 280 g/ha (Amaranthus rudis (AMATA))	pest or weed control at 140 g/ha [1]	pest or weed control at 280 g/ha [1]	pest or weed control at 140 g/ha [2, 5]	pest or weed control at 280 g/ha [2, 5]	pest or weed control at 140 g/ha [3, 4]	pest or weed control at 280 g/ha [3, 4]	plant injury at 140 g/ha (Glycine max)	plant injury at 280 g/ha (Glycine max)	pest or weed control at 140 g/ha (Kochia scoparia (KCHSC); [6])	pest or weed control at 280 g/ha (Kochia scoparia (KCHSC); [6])	pest or weed control at 140 g/ha ([2]; AMAPA)	pest or weed control at 280 g/ha ([2]; AMAPA)	pest or weed control at 140 g/ha [3]	pest or weed control at 280 g/ha [3]	also measured
CC/C(C)=N/OC(=O)c1c(Cl)ccc(Cl)c1OC [Compound A-91]	78%	98%	72%	78%	82%	96%	72%	88%	85%	88%	3%	3%							
COc1c(Cl)ccc(Cl)c1C(=O)ON(C)C(=O)Nc1ccccc1 [Compound A-75]			58%	85%	82%	88%	73%	91%	72%	73%	3%	3%							pest or weed control at 140 g/ha (Kochia scoparia (KCHSC)): 88%; pest or weed control at 280 g/ha (Kochia scoparia (KCHSC)): 97%
CO/C(=N\OC(=O)c1c(Cl)ccc(Cl)c1OC)c1ccccc1 [Compound A-83]	85%	94%	65%	65%	93%	87%	70%	83%	90%	97%	22%	15%							
COCCONC(=O)c1c(Cl)ccc(Cl)c1OC [Compound A-95]	57%	77%					42%	55%	8%	17%	4%	6%	3%	3%	5%	13%	3%	5%	Control/Injury (Glycine max; in vivo): 15
CCCNNC(=O)c1c(Cl)ccc(Cl)c1OC [Compound A-112]			13%	20%	18%	38%							0%	18%	18%	33%	10%	10%	
COc1c(Cl)ccc(Cl)c1C(=O)Oc1nccs1 [Compound A-103]			8%	18%	28%	12%							0%	3%	35%	30%	0%	3%	
CCCCCCNC(=O)c1c(Cl)ccc(Cl)c1OC [Compound A-128]			3%	8%	3%	5%							0%	0%	3%	5%			pest or weed control at 140 g/ha [3, 6]: 3%; pest or weed control at 280 g/ha [3, 6]: 5%
COc1c(Cl)ccc(Cl)c1C(=O)NNc1ccc([N+](=O)[O-])cc1 [Compound A-132]			18%	18%	38%	33%							8%	15%	20%	30%	23%	8%	
COc1c(Cl)ccc(Cl)c1C(=O)NNc1nc2ccccc2o1 [Compound A-109]			2%	3%	23%	20%							0%	3%	8%	5%	3%	5%	
